Measured values published in patent publication US20060025477A1, “Analogs of isovaleramide, a pharmaceutical composition including the same, and a method of treating central nervous system conditions or diseases” (priority 2004, published 2006).
Values joined by “and” are separate entries in the source; they are usually repeats but may differ in a detail not shown here. Equal entries are not always repeated. Where two headings read alike, the source gives them in different places.

Key:
male Swiss-Webster mice [1] = assay: Maximal electroshock (MES)-induced tonic extension seizure test; type: in vivo, mouse; conditions: for # P/# T (protected/tested): 300 mg/kg p.o.
Method: In the MES test, a substance is administered orally (p.o.) and is tested for efficacy against maximal electroshock (MES)-induced tonic extension seizures. Adult male Swiss-Webster mice (each 20-25 g of body weight) were used. The mice were housed in Association for the Assessment and Accreditation of Laboratory Animal Care-approved facilities under a constant 12-hour light/dark cycle with a constant temperature of 21° C.-23° C. and a relative humidity of 30% to 50%. All animals were permitted free access to standard laboratory chow (Prolab RMH 3000; PMI Nutrition International, LLC, Brentwood, Mo.) and water, except when removed from their home cages for testing. All mice were handled in a manner consistent with the recommendations in the National Research Council Publication Guide for the Care and Use of Laboratory Animals.
(§1) Test compounds (Compound S, Compound W, the S-enantiomer of Compound AA, the R-enantiomer of Compound AA, Compound HH, Compound JJ, and Compound MM) were dissolved in saline containing 0.5% methylcellulose. To determine time to peak effect, 300 mg/kg of each of the test compounds was suspended in 0.5% methylcellulose in saline and administered orally to a group of 20 mice. For comparative purposes, isovaleramide was also tested. At various times (0.25, 0.5, 1, 2, and 4 hours) after p.o. administration, individual mice were placed on the rotarod and tested for their ability to maintain balance on a rotating (6 rpm) 2.5-cm diameter knurled rod for 60 seconds. Mice that fell three times in this 60-second trial were considered impaired.
Following rotarod testing, the mice were tested in the maximal electroshock (MES)-induced tonic extension seizures test. For this test, a drop of electrolyte solution (0.5% butacaine sulfate in 0.9% saline) was placed on the eyes of each mouse prior to placement of corneal electrodes. The mice were restrained by gripping the loose skin on their dorsal surface and saline-coated corneal electrodes were held lightly against the two corneas. Each mouse received an electrical stimulation (50 mAmp, 50 Hz current, 0.2 sec) delivered through a silver-coated corneal electrode using an electroshock machine as originally described by Woodbury and Davenport (Arch Int. Pharmacodyn. Ther., 92:97-104, 1952). […] A tonic seizure was defined as a hindlimb extension in excess of 90 degrees from the plane of the body. Results were treated in a quantal manner. […] ED50's (the effective dose at which 50% of the mice were protected) were determined for Compounds W and HH by administering various doses (30, 100, 300 mg/kg) at the previously determined time to peak effect, as shown in Table 11.

male Swiss-Webster mice [2] = assay: Rotarod impairment test before MES testing; type: in vivo, mouse; conditions: 300 mg/kg p.o.
Method: as §1

[3] = tested on: Frings audiogenic seizure-susceptible mouse; assay: Frings audiogenic seizure assay (protection against sound-induced tonic hindlimb extension); type: in vivo; conditions: for Seizure Score ± S.E.M.: score 1-5; for ED50: Mus musculus, po
Method: The anticonvulsant activity of compound S ((S)-(+)-2,2-dimethylcyclopropane-carboxamide) was tested using the Frings audiogenic seizure-susceptible mouse. […] Compound S, which is a solution at 300 mg/kg and a suspension at 600 mg/kg, was administered to the mice at the doses indicated in Tables 1-3. Compound S was obtained from Sigma-Aldrich Chemical Co. (Aldrich catalog number: 43,463-9).
At the time of testing, individual mice were placed into a round Plexiglas chamber and exposed to a sound stimulus of 110 decibels, 11 kHz, for 20 seconds. Mice not displaying tonic hindlimb extensions upon exposure to the sound stimulus were considered protected. In addition, the seizure score for each mouse was recorded as: (1) running for less than 10 seconds; (2) running for greater than 10 seconds; (3) clonic activity of limbs and/or vibrissae; (4) forelimb extension/hindlimb flexion; and (5) hindlimb extension. The average seizure score was calculated for each group of mice used in the dose-response study.
The anticonvulsant activity of compounds I, W, X, and AA was tested using the Frings audiogenic seizure-susceptible mouse model as described in Example 23. […] The therapeutic index relates to separation between therapeutic efficacy and CNS toxicity as measured by motor impairment in the rotarod performance test.

[4] = Rotarod test of motor impairment (toxicity) in the Frings study; type: in vivo; conditions: Frings, mouse, in vivo, po, rotarod, Table 4
Method: (§2) At each dose, the mice were also tested on a rotarod for testing of motor impairment (toxicity). Testing for motor impairment on the rotarod involved placing a mouse for a three-minute trial period on a one-inch diameter rod rotating at six revolutions per minute. If the mouse fell off of the rotating rod three times within the three-minute time period, the dose was considered a toxic response.
(§3) The therapeutic index relates to separation between therapeutic efficacy and CNS toxicity as measured by motor impairment in the rotarod performance test.

Frings mice = assay: as above; type: in vivo; conditions: for separation between efficacy and CNS toxicity: as measured by rotarod impairment; for Therapeutic Index: Frings, mouse, in vivo, po
Method: as §2, §3

[5] = humans, cited from earlier work
[6] = Table 5, read-out: ED50 Oral Administration

C[C@H](C(N)=O)C(C)(C)C [Compound MM]
# P/# T (protected/tested) (male Swiss-Webster mice [1]; 0.25 hours): 0/4 | # P/# T (protected/tested) (male Swiss-Webster mice [1]; 0.5 hours): 1/4 | # P/# T (protected/tested) (male Swiss-Webster mice [1]; 1 hour): 2/4 | # P/# T (protected/tested) (male Swiss-Webster mice [1]; 2 hours): 3/4 | # P/# T (protected/tested) (male Swiss-Webster mice [1]; 4 hours): 3/4 | # I/# T (impaired/tested) (male Swiss-Webster mice [2]; 0.25 hours): 2/4 | # I/# T (impaired/tested) (male Swiss-Webster mice [2]; 0.5 hours): 3/4 | # I/# T (impaired/tested) (male Swiss-Webster mice [2]; 1 hour): 4/4 | # I/# T (impaired/tested) (male Swiss-Webster mice [2]; 2 hours): 3/4 | # I/# T (impaired/tested) (male Swiss-Webster mice [2]; 4 hours): 3/4

CC1(C)C[C@@H]1C(N)=O [Compound S, (S)-(+)-2,2-dimethylcyclopropanecarboxamide]
#Protected/#Tested 30 min ([3]; 30 mg/kg p.o., Table 1): no mice were protected and 0/4 | #Protected/#Tested 120 min ([3]; 30 mg/kg p.o., Table 1): no mice were protected and 0/4 | #Prot./#Tested at 15 min ([3]; 50 mg/kg p.o., Table 3): none of the mice were protected and 0/8 | Seizure Score ± S.E.M. ([3]; 50 mg/kg p.o.): 5 ± 0 | #Prot./#Tested at 15 min ([3]; 60 mg/kg p.o., Table 3): 5/8 | mice protected ([3]; 60 mg/kg p.o., 15 minutes, Table 3): 62.5% | Seizure Score ± S.E.M. ([3]; 60 mg/kg p.o.): 2.1 ± 0.9 | #Prot./#Tested at 15 min ([3]; 75 mg/kg p.o., Table 3): 7/8 | mice protected ([3]; 75 mg/kg p.o., 15 minutes, Table 2): 75% | mice protected ([3]; 75 mg/kg p.o., 15 minutes, Table 3): 87.5% | Seizure Score ± S.E.M. ([3]; 75 mg/kg p.o.): 1.1 ± 0.6 | # Prot./# Tested ([3]; 75 mg/kg p.o., ¼ hr, Table 2): ¾ | # Prot./# Tested ([3]; 75 mg/kg p.o., ½ hr, Table 2): no mice were protected and 0/4 | #Prot./#Tested at 15 min ([3]; 100 mg/kg p.o., Table 3): 6/8 | mice protected ([3]; 100 mg/kg p.o., 15 minutes, Table 2): 75% | mice protected ([3]; 100 mg/kg p.o., 15 minutes, Table 3): 75% | #Protected/#Tested 30 min ([3]; 100 mg/kg p.o., Table 1): 3/4 | mice protected ([3]; 100 mg/kg p.o., 30 minutes, Table 1): 75% | mice protected ([3]; 100 mg/kg p.o., 30 minutes, Table 2): 75% | # Prot./# Tested ([3]; 100 mg/kg p.o., 1 hr, Table 2): no mice were protected and 0/4 | #Protected/#Tested 120 min ([3]; 100 mg/kg p.o., Table 1): 1/4 | # Prot./# Tested ([3]; 100 mg/kg p.o., 2 hrs, Table 2): 1 mouse was protected and 1/4 | mice protected ([3]; 100 mg/kg p.o., 120 minutes, Table 1): 25% | Seizure Score ± S.E.M. ([3]; 100 mg/kg p.o.): 1.6 ± 0.8 | # Prot./# Tested ([3]; 100 mg/kg p.o., ¼ hr, Table 2): ¾ | # Prot./# Tested ([3]; 100 mg/kg p.o., ½ hr, Table 2): 3/4 | #Prot./#Tested at 15 min ([3]; 200 mg/kg p.o., Table 3): all the mice were protected and 8/8 | Seizure Score ± S.E.M. ([3]; 200 mg/kg p.o.): 0.1 ± 0.1 | #Protected/#Tested 30 min ([3]; 300 mg/kg p.o., Table 1): all of the tested mice were protected and 4/4 | #Protected/#Tested 120 min ([3]; 300 mg/kg p.o., Table 1): all of the tested mice were protected and 4/4 | average seizure score with dose ([3]; 50-200 mg/kg p.o., Table 3): generally decreased with increasing doses | ED50 ([3]; 0.25 h, p.o., tested at 15 min, 95% confidence interval 50.16-78.92, read-out: ED50 for protection against tonic extension): 64.9 mg/kg | ED50 ([3]; Table 4, read-out: ED50): 64.8 mg/kg | time at which anticonvulsant activity was observed ([3]; after oral administration): as early as 15 minutes and up to 2 hours | anticonvulsant activity (summary) ([3]; p.o.): demonstrated activity as an anticonvulsant | # P/# T (protected/tested) (male Swiss-Webster mice [1]; 0.25 hours): 0/8 | # P/# T (protected/tested) (male Swiss-Webster mice [1]; 0.5 hours): 0/8 | # P/# T (protected/tested) (male Swiss-Webster mice [1]; 1 hour): 1/8 | # P/# T (protected/tested) (male Swiss-Webster mice [1]; 2 hours): 0/4 | # P/# T (protected/tested) (male Swiss-Webster mice [1]; 4 hours): 0/4 | TD50 at 15 min [4]: > 600 mg/kg | #Toxic/#Tested 30 min (Frings mice; 30 mg/kg p.o., rotarod): 0/4 | #Toxic/#Tested 120 min (Frings mice; 30 mg/kg p.o., rotarod): 0/4 | #Toxic/#Tested 30 min (Frings mice; 100 mg/kg p.o., rotarod): 0/4 | #Toxic/#Tested 120 min (Frings mice; 100 mg/kg p.o., rotarod): 0/4 | #Toxic/#Tested 30 min (Frings mice; 300 mg/kg p.o., rotarod): 0/4 | #Toxic/#Tested 120 min (Frings mice; 300 mg/kg p.o., rotarod): 0/4 | #Toxic/#Tested at 15 min (Frings mice; 600 mg/kg p.o., 15 min, rotarod): 1/8 | mice with a toxic response (Frings mice; 600 mg/kg p.o., 15 minutes, rotarod): 12.5% | separation between efficacy and CNS toxicity (Frings mice; p.o.): 10 fold | toxic responses on the rotarod (Frings mice; doses of Table 1 (30, 100, 300 mg/kg p.o.), 30 or 120 minutes): none of the doses produced toxic responses | separation between activity and toxicity (summary) (Frings mice; p.o.): good separation between activity and toxicity | toxicity (summary) (Frings mice; p.o., rotarod): low toxicity | # I/# T (impaired/tested) (male Swiss-Webster mice [2]; 0.25 hours): 0/8 | # I/# T (impaired/tested) (male Swiss-Webster mice [2]; 0.5 hours): 1/8 | # I/# T (impaired/tested) (male Swiss-Webster mice [2]; 1 hour): 1/8 | # I/# T (impaired/tested) (male Swiss-Webster mice [2]; 2 hours): 0/4 | # I/# T (impaired/tested) (male Swiss-Webster mice [2]; 4 hours): 0/4

C[C@H]1CC[C@H](C(N)=O)CC1 [Compound W, trans-4-methylcyclohexanecarboxamide]
ED50 [3, 6]: 164 mg/kg | ED50 Oral Administration (male Swiss-Webster mice [1]; p.o., at time to peak effect, MES): Inactive at 300 mg/kg | Therapeutic Index (Frings mice): >4-fold

CC1CCC(CC(N)=O)CC1 (stereo not drawn) [Compound X, 2-(4-methylcyclohexyl)acetamide]
ED50 [3, 6]: 86.4 mg/kg | Therapeutic Index (Frings mice): >6-fold

CC(C)CC(N)=O [Isovaleramide, isovaleramide]
ED50 ([3]; Table 4, read-out: ED50): 206 mg/kg | ED50 (male Swiss-Webster mice [1]; Mus musculus, po, at time to peak effect, MES, read-out: ED50 Oral Administration): 913 mg/kg | separation between efficacy and CNS toxicity (Frings mice; p.o.): 5 fold | half-life ([5]; oral, doses ranging from 100 mg to 1600 mg): about 2.5 hours | absorption ([5]; orally administered): readily absorbed from the gastrointestinal tract
